From PubChem BioAssay (NCI)
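Protocol summary: plate cells (96-well), add compound at 5 concentrations, incubate 48 h, interpolate endpoints linearly. The concentration for 50% growth inhibition is given as GI50. TGI: total growth inhibition.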

Tests used:
Experiment in all cases: NCI-60 cell line screen, 48 h
HOP-62 NSCLC = test system: HOP-62 NSCLC
SK-MEL-5 melanoma = test system: SK-MEL-5 melanoma
HCT-116 colon = test system: HCT-116 colon
SK-OV-3 ovarian = test system: SK-OV-3 ovarian
SNB-19 CNS = test system: SNB-19 CNS
MCF7 breast = test system: MCF7 breast
MALME-3M melanoma = test system: MALME-3M melanoma
NCI/ADR-RES ovarian = test system: NCI/ADR-RES ovarian
ACHN renal = test system: ACHN renal
PC-3 prostate = test system: PC-3 prostate

## CCCCCCNC(=O)Oc1ccc(/C(=C(/C)Cc2ccc(OC)cc2)c2ccc(OCCCN(C)C)cc2)cc1
HOP-62 NSCLC
  GI50: 18.4 µM
  TGI: 34.2 µM
SK-MEL-5 melanoma
  GI50: 16.4 µM
  TGI: 30.1 µM
HCT-116 colon
  GI50: 12.6 µM
  TGI: 25.7 µM
SK-OV-3 ovarian
  GI50: 16.7 µM
  TGI: 30.9 µM
SNB-19 CNS
  GI50: 17.2 µM
  TGI: 31.5 µM
MCF7 breast
  GI50: 1.12 µM
  TGI: 17.1 µM
MALME-3M melanoma
  GI50: 15.3 µM
  TGI: 30.5 µM
NCI/ADR-RES ovarian
  GI50: 15.8 µM
  TGI: 31.3 µM
ACHN renal
  GI50: 16.4 µM
  TGI: 30.4 µM
PC-3 prostate
  GI50: 14.6 µM
  TGI: 28.2 µM

## Cc1ccc(C(NC(=O)c2ccccc2)c2ccc3cccnc3c2O)cc1 (stereo not drawn)
HOP-62 NSCLC
  GI50: 0.487 µM
  TGI: > 41.6 µM
SK-MEL-5 melanoma
  GI50: 0.201 µM
  TGI: 0.439 µM
HCT-116 colon
  GI50: 0.303 µM
  TGI: 13.8 µM
SK-OV-3 ovarian
  GI50: 0.474 µM
  TGI: 30.7 µM
SNB-19 CNS
  GI50: 0.492 µM
  TGI: > 100 µM
MCF7 breast
  GI50: 0.365 µM
  TGI: > 47.3 µM
MALME-3M melanoma
  GI50: 0.441 µM
  TGI: 12.3 µM
NCI/ADR-RES ovarian
  GI50: 0.189 µM
ACHN renal
  GI50: 0.285 µM
  TGI: 15.4 µM
PC-3 prostate
  GI50: 0.354 µM
  TGI: 26.3 µM

## N#Cc1c(Br)n(C2OC(CO)C(O)C2O)c2ncnc(N)c12 (stereo not drawn)
HOP-62 NSCLC
  GI50: 4.09 µM
  TGI: > 100 µM
SK-MEL-5 melanoma
  GI50: 2.68 µM
  TGI: 7 µM
HCT-116 colon
  GI50: 0.685 µM
  TGI: > 77.7 µM
SK-OV-3 ovarian
  GI50: 4.29 µM
  TGI: > 45.4 µM
SNB-19 CNS
  GI50: 4.35 µM
  TGI: > 75.9 µM
MCF7 breast
  GI50: 0.631 µM
  TGI: 4.01 µM
MALME-3M melanoma
  GI50: 2.53 µM
  TGI: 20 µM
NCI/ADR-RES ovarian
  GI50: 1.43 µM
  TGI: 52.5 µM
ACHN renal
  GI50: 1.21 µM
  TGI: > 90.9 µM
PC-3 prostate
  GI50: 0.811 µM
  TGI: 18.6 µM

## Cc1cn(C2C=CC(CO)O2)c(=O)[nH]c1=O (stereo not drawn)
HOP-62 NSCLC
  TGI: > 1000 µM
SK-MEL-5 melanoma
  TGI: > 1000 µM
HCT-116 colon
  TGI: > 1000 µM
SK-OV-3 ovarian
  TGI: > 1000 µM
SNB-19 CNS
  TGI: > 1000 µM
MCF7 breast
  TGI: > 1000 µM
MALME-3M melanoma
  TGI: > 1000 µM
NCI/ADR-RES ovarian
  TGI: > 1000 µM
ACHN renal
  TGI: > 1000 µM
PC-3 prostate
  TGI: > 1000 µM

## CC(C)(C)c1ccc(OC(=O)Nc2ccc(O)c(C(=O)O)c2)cc1
HOP-62 NSCLC
  TGI: > 100 µM
SK-MEL-5 melanoma
  TGI: > 100 µM
HCT-116 colon
  TGI: > 100 µM
SK-OV-3 ovarian
  TGI: > 100 µM
SNB-19 CNS
  TGI: > 100 µM
MCF7 breast
  TGI: > 100 µM
MALME-3M melanoma
  TGI: > 100 µM
NCI/ADR-RES ovarian
  TGI: > 100 µM
ACHN renal
  TGI: > 100 µM
PC-3 prostate
  TGI: > 100 µM

## Cn1nc(-c2ccc(Cl)cc2)nc2c(=O)n(C)c(=O)nc1-2
HOP-62 NSCLC
  GI50: 0.886 µM
  TGI: 1.75 µM
SK-MEL-5 melanoma
  GI50: 0.321 µM
  TGI: 0.878 µM
HCT-116 colon
  GI50: 0.32 µM
  TGI: 1.44 µM
SK-OV-3 ovarian
  GI50: 4.8 µM
  TGI: 17.7 µM
SNB-19 CNS
  GI50: 3.03 µM
  TGI: 6.73 µM
MCF7 breast
  GI50: 0.594 µM
  TGI: 1.57 µM
MALME-3M melanoma
  GI50: 0.382 µM
  TGI: 1.14 µM
NCI/ADR-RES ovarian
  GI50: 1.33 µM
  TGI: 4.47 µM
ACHN renal
  GI50: 1.13 µM
  TGI: 3.1 µM
PC-3 prostate
  GI50: 1.19 µM
  TGI: 7.9 µM

## CCN1C(=O)CCCc2c1ccc(Nc1ncc(Cl)c(NC3[C@@H](C(N)=O)[C@@H]4C=C[C@H]3C4)n1)c2OC (stereo partly drawn)
HOP-62 NSCLC
  GI50: 2.1 µM
  TGI: 13.7 µM
SK-MEL-5 melanoma
  GI50: 1.45 µM
  TGI: 4.82 µM
HCT-116 colon
  GI50: 0.805 µM
  TGI: 7.43 µM
SK-OV-3 ovarian
  GI50: 2.39 µM
  TGI: 7.74 µM
SNB-19 CNS
  GI50: 1.94 µM
  TGI: 14 µM
MCF7 breast
  GI50: 0.618 µM
  TGI: 6.7 µM
MALME-3M melanoma
  GI50: 0.998 µM
  TGI: 3.4 µM
NCI/ADR-RES ovarian
  GI50: 2.35 µM
  TGI: > 100 µM
ACHN renal
  GI50: 2.07 µM
  TGI: > 30.2 µM
PC-3 prostate
  GI50: 1.49 µM
  TGI: 18 µM

## O=C(O)c1cn(C2CC2)c2cc(N3CCN(C(=O)Nc4nc(-c5ccccc5)cs4)CC3)c(F)cc2c1=O
HOP-62 NSCLC
  GI50: 2.67 µM
  TGI: 82.4 µM
SK-MEL-5 melanoma
  GI50: 0.824 µM
  TGI: 2.87 µM
HCT-116 colon
  GI50: 0.647 µM
  TGI: > 100 µM
SK-OV-3 ovarian
  GI50: 1.95 µM
  TGI: 7.38 µM
SNB-19 CNS
  GI50: 1.12 µM
  TGI: > 100 µM
MCF7 breast
  GI50: 1.72 µM
  TGI: > 100 µM
MALME-3M melanoma
  GI50: 1.53 µM
  TGI: 6.52 µM
NCI/ADR-RES ovarian
  GI50: 4.82 µM
  TGI: > 100 µM
ACHN renal
  GI50: 0.894 µM
  TGI: 7.54 µM
PC-3 prostate
  GI50: 1.88 µM
  TGI: > 100 µM

## Oc1ccc(-c2nc3ccc4[nH]ncc4c3c3c2CCCC3)c(F)c1
HOP-62 NSCLC
  GI50: 1.5 µM
  TGI: 5.47 µM
SK-MEL-5 melanoma
  GI50: 2.55 µM
  TGI: 9.26 µM
HCT-116 colon
  GI50: 0.739 µM
  TGI: 11 µM
SK-OV-3 ovarian
  GI50: 0.765 µM
  TGI: 2.75 µM
SNB-19 CNS
  GI50: 3.59 µM
  TGI: 14.2 µM
MCF7 breast
  GI50: 4.91 µM
  TGI: 20.7 µM
MALME-3M melanoma
  GI50: 3.36 µM
  TGI: 12.1 µM
NCI/ADR-RES ovarian
  GI50: 3.91 µM
  TGI: 53.3 µM
ACHN renal
  GI50: 2.08 µM
  TGI: 12.5 µM
PC-3 prostate
  GI50: 2.75 µM
  TGI: 14.8 µM

## Cc1ccc(/C=C2\CN(C(=O)C(Cl)Cl)C/C(=C\c3ccc(C)cc3)C2=O)cc1
HOP-62 NSCLC
  GI50: 0.298 µM
  TGI: 1.28 µM
SK-MEL-5 melanoma
  GI50: 0.445 µM
  TGI: 1.53 µM
HCT-116 colon
  GI50: 0.0654 µM
  TGI: 0.194 µM
SK-OV-3 ovarian
  GI50: 1 µM
  TGI: > 100 µM
SNB-19 CNS
  GI50: 0.286 µM
  TGI: 1.03 µM
MCF7 breast
  GI50: 0.0546 µM
  TGI: 0.836 µM
MALME-3M melanoma
  GI50: 0.35 µM
  TGI: 2.04 µM
NCI/ADR-RES ovarian
  GI50: 0.341 µM
ACHN renal
  GI50: 0.244 µM
  TGI: 0.62 µM
PC-3 prostate
  GI50: 0.209 µM
  TGI: 0.672 µM
